Columns and labels:
[1] = molecular target: T1, human CAR ligand-binding domain (LBD) (Homo sapiens, UniProt Q14994); assay: LanthaScreen TR-FRET CAR Coactivator Assay; type: biochemical; conditions: for fold activation compared to vehicle control: CITCO 10 μM; for IC50: IC50 (95% Conf. Interv.), TR-FRET CAR Assay
T1 sequence (Q14994 109-352 limits assumed): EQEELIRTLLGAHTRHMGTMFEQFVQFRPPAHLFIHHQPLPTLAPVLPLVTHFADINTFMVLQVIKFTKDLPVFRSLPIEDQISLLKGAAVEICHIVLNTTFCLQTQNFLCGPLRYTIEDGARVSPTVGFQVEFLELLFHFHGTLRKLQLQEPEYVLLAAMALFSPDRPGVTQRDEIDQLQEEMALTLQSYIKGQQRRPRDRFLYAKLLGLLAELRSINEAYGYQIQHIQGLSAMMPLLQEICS
From the text: The LanthaScreen^TMTR-FRET CAR Coactivator Binding Assay (Cat. No. PV4836, now produced by Thermo) was used with slight modifications of the manufacturer’s protocol. The assay uses two fluorophores: a terbium-labeled anti-GST antibody interacting with glutathione-S-transferase (GST) tagged human CAR ligand-binding domain (LBD) and a fluorescein-labeled PGC1α coactivator peptide (Figure 1). […] Thus, this energy transfer is detected by an increase in the fluorescence emission of the acceptor (fluorescein) and a decrease in the fluorescence emission of the donor (terbium). To quantify the process, TR-FRET is expressed as a ratio of the intensities of the acceptor and donor fluorophores. […] Incubation time was optimized from 1 to 4 h at room temperature and protected from light. […] According to the recommended protocol of the manufacturer, CAR-LBD is added to the solution of test compounds, followed by the addition of a mixture of the fluorescein-coactivator peptide and terbium-labeled anti-GST antibody. In the study we also tested to determine if the order of adding the constituents in the mixture may have an influence on the sensitivity and reproducibility of the assay. […] The terbium was excited using a 340-nm excitation filter with a 30-nm bandwidth and fluorescein was excited with the first emission peak of terbium centered at 495 nm. Energy transfer to fluorescein emission (520 nm) is then measured in the silent region between the first two terbium emission peaks centered at 490 and 545 nm (see Graphical Abstract). […] Delay time was set at 100 μs and integration time 200 μs. Gains set to 100 were the use constant in all the experiments. The 520 nm/495 nm TR-FRET ratio was then calculated. […] The values above the baseline represent activation of CAR LBD-PGC1α interaction and agonistic activity of the tested ligand. The experiments were performed at least three times in quadruplicates. Data are presented as the means and S.D. from three independent experiments (n = 3). […] Dose-response curves were generated by plotting the emission TR-FRET ratio vs. the log of a ligand (in μM). To determine the half maximal inhibitory concentration (IC50) value, the data were fitted using an equation for a sigmoidal dose response inhibition (with a varying slope) using the software GraphPad™ PRISM version 6.05. Z-factors were calculated using the method of Zhang et al..

human CAR LBD = molecular target: T2, human CAR LBD (Homo sapiens, UniProt Q14994); assay: CAR LBD assembly assay (GAL4/VP16 luciferase reporter in HepG2 cells); type: cell-based; conditions: CITCO 1 µM, up to highest studied concentration 30 µM
T2 construct: encoding C (151–349 aa, helices 3–12, pCAR-C/VP16); N (103–150 aa, helix 1, pCAR-N/GAL4) terminal parts of human CAR LBD; expressed in transfected cells; host or cells: HepG2
T2 sequence (Q14994 103-150 isoform Q14994-2): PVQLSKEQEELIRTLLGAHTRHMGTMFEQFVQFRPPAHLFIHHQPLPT
T2 sequence (Q14994 151-348 isoform Q14994-2): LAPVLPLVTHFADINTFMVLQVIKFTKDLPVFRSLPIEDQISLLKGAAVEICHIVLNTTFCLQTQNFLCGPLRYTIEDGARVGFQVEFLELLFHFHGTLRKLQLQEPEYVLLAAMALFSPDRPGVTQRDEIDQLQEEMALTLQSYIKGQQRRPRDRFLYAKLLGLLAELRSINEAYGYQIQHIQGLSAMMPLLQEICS
Description: The CAR LBD assembly assay was performed according to the protocol we described in our latest report. The CAR LBD assembly assay is based on two hybrid expression constructs encoding C (151–349 aa, helices 3–12, pCAR-C/VP16) and N (103–150 aa, helix 1, pCAR-N/GAL4) terminal parts of human CAR LBD that are co-transfected together with the pGL5-luc luciferase gene reporter plasmid (Promega) containing GAL4 binding sites. When the CAR LBD interacts with a ligand (both agonist and antagonist), connection of the helix 1 to CAR LBD helices 3–12 promotes firefly luciferase activation. Thus, the assay monitor interaction of CAR LBD with ligands rather than its activation or deactivation.

Clc1ccc(-c2nc3sccn3c2C=NOCc2ccc(Cl)c(Cl)c2)cc1 [CITCO, 6-(4-Chlorophenyl)imidazo[2,1-b][1,3]thiazole-5-carbaldehyde O-(3,4-dichlorobenzyl)oxime]
fold activation compared to vehicle control ([1]; modified order: CAR-LBD and fluorescein-/terbium-labeled reagents before the agonist (Figure 2B)): 1.94 fold | fold activation compared to vehicle control ([1]; modified order: ligand, fluorescein-PGC1α and Tb antibody, then CAR-LBD (Figure 2A)): 2.26 fold | fold activation compared to vehicle control ([1]; standard procedure (Figure 2C)): 2.56 fold

Clc1ccccc1C(c1ccccc1)(c1ccccc1)n1ccnc1 [Clotrimazole, 1-[(2-Chlorophenyl)diphenylmethyl]-1H-imidazole]
effect on interaction of CAR LBD with the PGC1α coactivator ([1]; 10 μM, no CITCO): almost completely inhibited | effect on constitutive activity of CAR ([1]; 30 μM): abolish the constitutive activity of CAR | effect on CITCO-mediated CAR LBD interaction with PGC1α ([1]; 30 μM, with CITCO): completely abrogated the effect of CITCO | effect on constitutive activity of CAR ([1]; concentrations of 20 and 30 μM): abolished constitutive activity of CAR | concentration with significant inhibition of CAR LBD constitutive activity ([1]; no CITCO): 0.01 µM

C[C@]12CC[C@@H](O)C[C@@H]1CC[C@@H]1[C@@H]2CC[C@]2(C)C=CC[C@@H]12 [Androstenol, 5α-androst-16-en-3α-ol]
IC50 ([1]; CITCO 1 μM, antagonist mode, with agonist CITCO 1 μM): 313 µM | IC50 ([1]; No CITCO, inverse agonist mode, reduction of CAR constitutive activity): 0.35 µM | concentration at which consistent antagonistic effect on CITCO was observed ([1]; with CITCO 1 μM): 30 µM | inhibition of CITCO-mediated CAR LBD interaction with PGC1α ([1]; with CITCO 1 μM, serial dilution): did not show any significant inhibition | inhibition of the activity of CITCO (human CAR LBD): weakest inhibition | inhibition of the activity of CITCO (human CAR LBD; listed as androstenol): weaker inhibition
